Test results from US10684290B2, “LKB1 related diagnostics and treatments of cancer” (Dignity Health, priority 2014, dated 2020).

Tests used:
[1] = test system: KRas/LKB1^wt and KRas/LKB1^null NSCLC tumors; experiment: Murine transgenic models of KRas and KRas/LKB1 null NSCLC, MRI tumor volume; type: in vivo, mice
Experimental: KRas^G12D/LKB1^lox/lox (KRas/LKB1^null) were generated by selective breeding of Lox-Stop-Lox KRas^G12D mice, purchased from Jackson Laboratories (Bar-Harbor, Me.), with LKB1^lox/lox mice obtained from Mouse Repository at the NCI and were inbred on a FVB background. KRas^G12D/LKB1^wt/wt (KRas/LKB1^wt) mice were generated by backcrossing Lox-Stop-Lox KRas^G12D onto a FVB background. Induction of lung tumors was performed. Briefly, six-week-old KRas/LKB1^null and KRas/LKB1^wt mice were transiently infected with 5×10^6 p.f.u. of Cre adenovirus (University of Iowa adenoviral core) via intranasal infection. At ˜6 weeks (KRas/LKB1^null) or ˜10 weeks (KRas/LKB1^wt) post-infection, mice underwent a baseline MRI scan to determine the baseline tumor burden. Mice with identified disease were randomized for daily treatment with either vehicle (PBS) or 500 mg/kg 2DG for three weeks, at which time mice received a follow-up MRI scan, sacrificed and the presence of disease confirmed by gross assessment and histology. For data generated in FIG. 2, KRas/LKB1^null and KRas/LKB1^wt mice with MRI positive tumors were treated either with 2DG (500 mg/kg) or vehicle (PBS) twice a day for two days before sacrifice and necropsy of tumor tissue. Mice received daily checks to monitor for clinical signs of disease (labored breathing, weight loss) and all procedures were under a protocol approved by the St. Joseph's Hospital and Medical Center IACUC committee.
All the scans were performed using a 7T small animal, 30-cm horizontal-bore magnet and BioSpec Advance III spectrometer (Bruker, Billerica, Mass.) with a 72 mm quadrature volume coil. Each animal was induced and maintained under isoflurane anesthesia, 3.0% and 1.5%, respectively, and delivered with 1.5 L/min of 100% oxygen. During MRI scans, the animal's respiration was continually monitored by a small animal monitoring and gating system (SA Instruments, Stoney Brook, N.Y.) via a pillow sensor positioned on top of the abdomen. Mice were placed on a heated animal bed system (Bruker, Billerica, Mass.) and the normal body temperature (36-37° C.) was maintained. For MR imaging, a Fast Low Angle Shot (FLASH) sequence (TR/TE=40 ms/2 ms; FOV=60 mm×60 mm; Average=2; matrix=256×256; Flip Angle=30°) was used to acquire initial scout images, which were used for locating the lung region for subsequent images. Then T1 weighted images were obtained with the Fast Imaging with Steady State Precession (FISP) sequence (TR/TE 5.262 ms/2.0 ms; 8 segments; FOV=30 mm×30 mm; matrix=256×256; slice thickness=1.0 mm; Flip angle, 20°; 22 averages; total acquisition time=17 min). […] Change in tumor volumes was determined by comparison of baseline tumor volume to tumor volume following three weeks of treatment.

[2] = test system: H838-KDLKB1 and H838-LKB1 cells; experiment: Immunoblot of ER stress markers in H838-LKB1 and H838-KDLKB1 cells; type: cell-based, human; conditions: 12 h; 2DG 10 mM, Tm 1.25 ug/ml, BFA 30 ng/ml
Experimental: Cells were washed once with ice-cold PBS and incubated on ice for 30 min with a lysis buffer containing 10 mM Tris-HCl, 150 mM NaCl, 0.1% SDS and 1% IGEPAL (Sigma) to which a protease inhibitor cocktail (Sigma) and two phosphatase cocktails I and II (Sigma) were added immediately before use. Lysates were transferred to tubes and insoluble material was pelleted by centrifugation. For immunoblotting, 50-100 μg of total protein lysates were separated by SDS-PAGE and transferred to nitrocellulose. Blots were blocked in 5% milk/Tris buffered saline/0.1% TWEEN® 20 (polyoxyethylenesorbitan monolaurate) (TBST) and primary antibodies were diluted in 5% Bovine Serum Albumin (Sigma)/TBST and incubated overnight at 4° C. Blots were developed with ECL plus (GE) and visualized on a Kodak Image station.

[3] = KRas/LKB1^null mice, data not shown

O=CC[C@@H](O)[C@H](O)[C@H](O)CO [2DG, 2-deoxy-D-glucose]
Growth of NSCLC tumors (change in tumor volume by MRI) compared to vehicle ([1]; 500 mg/kg daily, three weeks, KRas/LKB1 wt and KRas/LKB1^null mice): reduced the growth of NSCLC tumors
Response of KRas/LKB1^null tumors compared to KRas/LKB1^wt tumors ([1]; 500 mg/kg daily, three weeks, p=0.0032): statistically greater response
Effects upon metastasis, gross assessment at necropsy [1, 3]: did not observe any effects upon metastasis
Survival of mice in longer term studies [1, 3]: no statistical impact upon survival
Phosphorylated eIF2a in H838-KDLKB1 compared to H838-LKB1 cells [2]: increased levels of phosphorylated eIF2a
